# Reference: patent US6013648A, “CB2 Receptor agonist compounds” (Sanofi, priority 1995, dated 2000)
# What was measured:
# human B cells = test: DNA synthesis rate (thymidine absorption) of human B cells co-stimulated with anti-Ig antibodies; type: cell-based; conditions: for increase in the thymidine absorption (DNA synthesis rate): nanomolar concentrations, human B cells co-stimulated with anti-Ig antibodies
# Source text: It has been shown that, at nanomolar concentrations, compounds according to the invention, such as 3-(morpholin-4-ylmethyl)-5-methyl-6-(naphth-1-ylcarbonyl)-2,3-dihydropyrrolo[1,2,3-de]-1,4-benzoxazine methanesulfonate and 1-(2-(morpholin-4-yl)ethyl)-2-methyl-3-(naphth-1-ylcarbonyl)-7-methoxyindole, are capable of substantially increasing the DNA synthesis rate of human B cells co-stimulated with anti-Ig antibodies (increase of about 40% in the thymidine absorption).
# [1] = molecular target: T1, peripheral human cannabinoid receptors (CB2) (Homo sapiens, UniProt P34972); test: affinity binding test, membranes from cell lines expressing CB2; conditions: in vitro binding; read-out: affinity for the CB2 receptor
# T1 construct: expressed in transfected cells; host or cells: cell line expressing CB2 (probably CHO; the print may tie CHO to CB1 only)
# Experimental: (§1) Affinity binding tests were carried out under the experimental conditions described by Devane et al. (Molecular Pharmacology (1988) 34, 605-613) with membranes derived from cell lines in which the CB1 and CB2 receptors were expressed (Munro et al., Nature (1993) 365, 561-565).
# [2] = molecular target: T2, human CB2 cannabinoid receptors (Homo sapiens, UniProt P34972); test: forskolin-stimulated cAMP production / adenylate cyclase inhibition, CB2; type: cell-based
# T2 construct: expressed in transfected cells; host or cells: probably CHO cells (the print may tie CHO to CB1 only)
# Experimental: Furthermore, the compounds according to the invention behave in vitro as specific agonists for the human CB2 cannabinoid receptors relative to the CB1 receptors expressed in CHO cells. In fact, by binding specifically to the CB2 receptors, they reduce forskolin-stimulated cAMP production by inhibiting the adenylate cyclase. The tests were carried out under the experimental conditions described by Matsuda et al. (Nature, 1990, 346, 561-564).
# By way of example, the following adenylate cyclase 50% inhibitory concentrations, IC50, were calculated for 1-(2-(morpholin-4-yl)ethyl)-2-methyl-3-(4-bromonaphth-1-ylcarbonyl)-7-methoxyindole: […]
# [3] = molecular target: T3, CB1 receptors expressed in CHO cells (Homo sapiens, UniProt P21554); test: forskolin-stimulated cAMP production / adenylate cyclase inhibition, CB1; type: cell-based
# T3 construct: expressed in transfected cells; host or cells: CHO cells
# Experimental: The tests were carried out under the experimental conditions described by Matsuda et al. (Nature, 1990, 346, 561-564).
# [4] = molecular target: T4, central human receptors (CB1) (Homo sapiens, UniProt P21554); test: affinity binding test, membranes from cell lines expressing CB1
# T4 construct: expressed in transfected cells; host or cells: Chinese hamster ovary (CHO) cells
# Experimental: as §1
# T2 sequence (P34972 whole entry): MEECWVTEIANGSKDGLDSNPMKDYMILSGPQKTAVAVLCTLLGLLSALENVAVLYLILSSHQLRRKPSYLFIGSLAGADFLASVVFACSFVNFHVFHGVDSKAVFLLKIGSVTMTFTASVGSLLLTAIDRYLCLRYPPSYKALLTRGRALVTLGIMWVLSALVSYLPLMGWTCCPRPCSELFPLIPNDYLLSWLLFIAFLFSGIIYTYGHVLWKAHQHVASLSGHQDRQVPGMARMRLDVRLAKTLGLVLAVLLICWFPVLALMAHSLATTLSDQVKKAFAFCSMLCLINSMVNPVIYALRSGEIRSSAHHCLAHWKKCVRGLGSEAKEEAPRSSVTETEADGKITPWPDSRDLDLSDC
# T1 sequence (P34972 whole entry): as above
# T4 sequence (P21554 whole entry): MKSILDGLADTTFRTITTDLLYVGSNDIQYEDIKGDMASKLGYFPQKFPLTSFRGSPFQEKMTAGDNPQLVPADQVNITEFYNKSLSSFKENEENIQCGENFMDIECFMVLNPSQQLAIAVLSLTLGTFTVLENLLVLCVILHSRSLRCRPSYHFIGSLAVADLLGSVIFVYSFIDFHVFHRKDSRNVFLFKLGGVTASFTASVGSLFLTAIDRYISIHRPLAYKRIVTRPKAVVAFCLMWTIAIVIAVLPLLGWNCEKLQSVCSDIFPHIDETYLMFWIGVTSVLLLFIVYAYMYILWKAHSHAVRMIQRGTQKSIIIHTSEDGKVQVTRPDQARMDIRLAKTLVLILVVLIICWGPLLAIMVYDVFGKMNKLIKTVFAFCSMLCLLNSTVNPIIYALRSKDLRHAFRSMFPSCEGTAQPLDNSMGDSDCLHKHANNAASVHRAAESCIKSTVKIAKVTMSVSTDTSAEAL
# T3 sequence (P21554 whole entry): as above
compound,measurement,setting,value
"CS(=O)(=O)O.Cc1c(C(=O)c2cccc3ccccc23)c2cccc3c2n1C(CN1CCOCC1)CO3 (single isomer, unassigned) [3-(morpholin-4-ylmethyl)-5-methyl-6-(naphth-1-ylcarbonyl)-2,3-dihydropyrrolo[1,2,3-de]-1,4-benzoxazine methanesulfonate]",increase in the thymidine absorption (DNA synthesis rate),human B cells,about 40%
"Cc1c(C(=O)NN2CCCCC2)nn(-c2ccc(Cl)cc2Cl)c1-c1ccc(Cl)cc1 [SR 141716A, reference compound]",blocking effect,"human B cells; wide concentration range, with CP 55940 (or Δ^9 -THC or WIN 55212-2) at 10^-9 M",no blocking effect was observed
"COc1cccc2c(C(=O)c3ccc(Br)c4ccccc34)c(C)n(CCN3CCOCC3)c12 [Compound 22, 1-(2-(Morpholin-4-yl)ethyl)-2-methyl-3-(4-bromonaphth-1-ylcarbonyl)-7-methoxyindole]",Ki,[1],1.8 nM
same,IC50,[2],1 nM
same,IC50,[3],1000 nM
same,Ki,[4],> 1000 nM
"COc1cccc2c(C(=O)c3cccc4ccccc34)c(C)n(CCN3CCOCC3)c12 [Compound 6, 1-(2-(morpholin-4-yl)ethyl)-2-methyl-3-(naphth-1-ylcarbonyl)-7-methoxyindole]",increase in the thymidine absorption (DNA synthesis rate),human B cells,about 40%
